Measurements: publication PMC10850561, “Eutypellaolides A–J, Sesquiterpene diversity expansion of the polar fungus Eutypella sp. D-1” (Frontiers in Microbiology, 2024)

Target: T1, PTP1B (Homo sapiens, UniProt P18031)
T1 construct: gene PTPN1
T1 sequence (P18031 1-435): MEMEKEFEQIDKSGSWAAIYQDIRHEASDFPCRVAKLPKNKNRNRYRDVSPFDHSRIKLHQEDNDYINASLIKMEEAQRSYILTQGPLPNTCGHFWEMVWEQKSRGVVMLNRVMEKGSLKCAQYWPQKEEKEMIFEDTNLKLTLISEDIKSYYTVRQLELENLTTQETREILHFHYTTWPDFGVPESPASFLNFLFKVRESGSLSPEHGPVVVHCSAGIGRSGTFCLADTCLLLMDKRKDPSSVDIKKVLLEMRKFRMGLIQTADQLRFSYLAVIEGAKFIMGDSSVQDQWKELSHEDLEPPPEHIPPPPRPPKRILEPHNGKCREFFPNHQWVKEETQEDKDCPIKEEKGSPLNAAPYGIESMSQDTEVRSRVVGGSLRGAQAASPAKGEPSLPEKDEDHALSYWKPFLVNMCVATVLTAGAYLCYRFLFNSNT
Assay: PTP1B enzyme inhibition assay in 96-well microplates
Assay type: biochemical

| IC50 [µM] | Structure (SMILES) |
| --- | --- |
| 44.8 | CO[C@]1(C)C2=CC3=C(CO)C(=O)OC3=C[C@]2(C)CC[C@@H]1O [compound 5, Eutypellaolide E] |
| 49.5 | CC1=CC(=O)C[C@@]2(C)C=C3OC(=O)C(CO)=C3C=C12 [compound 14, 2-one-13hydroxy-3,5,8,7(11)-eudesmatetraen-12,8-olide] |
| 43.2 | CC1=CCC[C@@H]2CC3=C(CO)C(=O)OC3=CC12C (stereo partly drawn) [compound 11, eut-Guaiane] |
